Measurements published in PubChem BioAssay (NCI).
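Protocol summary: plate cells (96-well), add compound at 5 concentrations, incubate 48 h, interpolate endpoints linearly. GI50 is the concentration that inhibits growth by half. The concentration for full growth arrest is given as TGI.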

What was measured:
Experiment in all cases: NCI-60 cell line screen, 48 h; in the data active = GI50 below about 0.43 µM; inactive = the rest
[1] = system: 786-0 renal
[2] = system: A498 renal
[3] = system: A549 NSCLC
[4] = system: ACHN renal
[5] = system: CCRF-CEM leukemia
[6] = system: COLO 205 colon
[7] = system: DU-145 prostate
[8] = system: EKVX NSCLC
[9] = system: HCC-2998 colon
[10] = system: HCT-116 colon
[11] = system: HCT-15 colon
[12] = system: HL-60(TB) leukemia
[13] = system: HOP-62 NSCLC
[14] = system: HOP-92 NSCLC
[15] = system: HS 578T breast
[16] = system: HT29 colon
[17] = system: IGROV1 ovarian
[18] = system: K-562 leukemia
[19] = system: KM12 colon
[20] = system: LOX IMVI melanoma
[21] = system: M14 melanoma
[22] = system: MALME-3M melanoma
[23] = system: MCF7 breast
[24] = system: MDA-MB-231 breast
[25] = system: MOLT-4 leukemia
[26] = system: NCI-H226 lung
[27] = system: NCI-H23 lung
[28] = system: NCI-H460 lung
[29] = system: NCI-H522 lung
[30] = system: NCI/ADR-RES ovarian
[31] = system: OVCAR-3 ovarian
[32] = system: OVCAR-4 ovarian
[33] = system: OVCAR-5 ovarian
[34] = system: OVCAR-8 ovarian
[35] = system: PC-3 prostate
[36] = system: RPMI-8226 leukemia
[37] = system: RXF 393 renal
[38] = system: SF-268 CNS
[39] = system: SF-295 CNS
[40] = system: SF-539 CNS
[41] = system: SK-MEL-2 melanoma
[42] = system: SK-MEL-28 melanoma
[43] = system: SK-MEL-5 melanoma
[44] = system: SK-OV-3 ovarian
[45] = system: SN12C renal
[46] = system: SNB-19 CNS
[47] = system: SNB-75 CNS
[48] = system: SW-620 colon
[49] = system: T-47D breast
[50] = system: TK-10 renal
[51] = system: U251 CNS
[52] = system: UACC-257 melanoma
[53] = system: UACC-62 melanoma
[54] = system: UO-31 renal

CCOC(=O)c1cc2c(n1Cc1cccc(OC)c1)-c1oncc1CC2
7.35 µM: TGI [40]
active: GI50 [2] 156 nM | GI50 [12] 297 nM | GI50 [16] 370 nM | GI50 [18] 343 nM | GI50 [29] 237 nM | GI50 [30] 302 nM | GI50 [31] 380 nM | GI50 [47] 399 nM
inactive: GI50 [1] 4.29 µM | GI50 [3] 9.42 µM | GI50 [4] 2660 nM | GI50 [5] 1430 nM | GI50 [6] 508 nM | GI50 [7] 2270 nM | GI50 [8] 9.1 µM | GI50 [9] 1940 nM | GI50 [10] 470 nM | GI50 [11] 521 nM | GI50 [13] 860 nM | GI50 [14] 10.5 µM | GI50 [15] 742 nM | GI50 [17] 780 nM | GI50 [19] 550 nM | GI50 [20] 794 nM | GI50 [21] 432 nM | GI50 [22] 571 nM | GI50 [23] 487 nM | GI50 [24] 4.87 µM | GI50 [25] 1160 nM | GI50 [26] 7.46 µM | GI50 [27] 3.42 µM | GI50 [28] 511 nM | GI50 [32] 9.6 µM | GI50 [33] 17.9 µM | GI50 [34] 10.3 µM | GI50 [35] 5.19 µM | GI50 [36] 3.52 µM | GI50 [37] 1720 nM | GI50 [38] 18 µM | GI50 [39] 433 nM | GI50 [40] 1160 nM | GI50 [41] 1110 nM | GI50 [42] 970 nM | GI50 [43] 595 nM | GI50 [44] 2420 nM | GI50 [45] 13.5 µM | GI50 [46] 4.72 µM | GI50 [48] 433 nM | GI50 [49] 610 nM | GI50 [50] 7.51 µM | GI50 [51] 909 nM | GI50 [52] 39.6 µM | GI50 [53] 541 nM | GI50 [54] 1910 nM
3.99 µM: TGI [6]
1420 nM: TGI [29]
78.5 µM: TGI [54]
11.3 µM: TGI [43]
2660 nM: TGI [31]
49.7 µM: TGI [39]
5.14 µM: TGI [30]
8.16 µM: TGI [15]
35.9 µM: TGI [37]
35.3 µM: TGI [21]
3.03 µM: TGI [47]
97.2 µM: TGI [49]
19.9 µM: TGI [10]
3.39 µM: TGI [2]
29.6 µM: TGI [9]
15.8 µM: TGI [16]
> 100 µM: TGI [1] | TGI [3] | TGI [4] | TGI [5] | TGI [7] | TGI [8] | TGI [11] | TGI [13] | TGI [14] | TGI [17] | TGI [18] | TGI [19] | TGI [20] | TGI [23] | TGI [24] | TGI [25] | TGI [26] | TGI [27] | TGI [28] | TGI [32] | TGI [33] | TGI [34] | TGI [35] | TGI [36] | TGI [38] | TGI [41] | TGI [42] | TGI [44] | TGI [45] | TGI [46] | TGI [48] | TGI [50] | TGI [51] | TGI [52] | TGI [53]
76.5 µM: TGI [22]
1630 nM: TGI [12]
